{
  "source": "patent US8399416B2",
  "about": "“Method of using heparin binding motif for treating asthma” (National Tsing Hua University, priority 2008, dated 2013)",
  "molecules": {"B1": {"name": "ECP wt: Recombinant human eosinophil cationic protein with C-terminal His6 tag, expressed in E. coli (protein, UniProt P12724 28-160, looked up)", "Eosinophil cationic protein": "RPPQFTRAQWFAIQHISLNPPRCTIAMRAINNYRWRCKNQNTFLRTTFANVVNVCGNQSIRCPHNRTLNNCHRSRFRVPLLHCDLINPGAQNISNCTYADRPGRRFYVVACDNRDPRDSPRYPVVPVHLDTTI", "modifications": "C-terminal His6 tag", "notes": "Recombinant human eosinophil cationic protein with C-terminal His6 tag, expressed in E. coli"}},
  "key": {"ECP": {"molecular_target": "T1, ECP (Homo sapiens, UniProt P12724)", "T1 construct": "His6 (C); made in house; host or cells: E. coli BL21-CodonPlus (DE3)", "T1 sequence (P12724 28-160)": "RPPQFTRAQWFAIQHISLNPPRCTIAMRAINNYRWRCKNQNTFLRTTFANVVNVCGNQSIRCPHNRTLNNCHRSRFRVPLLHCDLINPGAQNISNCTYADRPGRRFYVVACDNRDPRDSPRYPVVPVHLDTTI", "assay": "FACE analysis of ECP binding to heparin oligosaccharides", "settings": "AMAC-labeled oligosaccharide incubated with ECP, 1% agarose gel", "procedure": "FIG. 2. FACE analysis to evaluate binding of ECP to various sugar-containing substrates. A, AMAC-labeled LMWH was incubated with or without ECP in PBS for 10 min at 25° C., and the binding reaction products were separated on a 1% agarose gel. The numbers above the gel indicate the molar ratio of ECP to LMWH. B, Representative oligosaccharide binding pattern of ECP. AMAC-labeled heparin dp3 (10.8 nmol), dp5 (3.3 nmol), dp7 (1.4 nmol), dp9 (1.1 nmol), LMWH (0.03 nmol) and PI-88 (0.03 nmol) were incubated with or without 10-fold molar excess of ECP, and the binding reaction products separated on a 1% agarose gel. C, Representative oligosaccharide binding pattern of EDN. AMAC-labeled heparin dp3 (10.8 nmol), dp5 (3.3 nmol), dp7 (1.4 nmol), dp9 (1.1 nmol), LMWH (0.03 nmol) and PI-88 (0.03 nmol) were incubated with or without 10-fold molar excess of ECP, and the binding reaction products separated on a 1% agarose gel.\nThus, the minimal heparin length (or disaccharide unit) required to interact with ECP was investigated by FACE (Fluorescence-assisted carbohydrate electrophoresis).\nInitially, ECP was co-incubated with LMWH at various molar ratios, and the binding products were analyzed by gel electrophoresis. […]"}, "[1]": {"system": "ECP binding to Beas-2B cells", "assay": "Competitive inhibition of MBP-ECP binding to Beas-2B cells (cell ELISA)", "assay_type": "cell-based, human", "settings": "Fifty micrograms per mililiter oligosaccharide; 5 μg/ml MBP-ECP; 4° C.", "procedure": "FIG. 3. Heparin oligosaccharides inhibit ECP binding to cells. […] The amount of MBP-ECP bound to cells without GAG treatment was set to 100%. C, control (cells were incubated with MBP.) The data shown are the means of triplicate experiments.\nFIG. 7. Synthetic peptides inhibit ECP binding to cells. […] The data shown are the means of triplicate experiments.\nBeas-2B, a human bronchial epithelial cell line, was cultured in RPMI 1640 medium (Sigma-Aldrich) supplemented with heat-inactivated 10% fetal bovine serum (Gibco/Invitrogen, Carlsbad, Calif.).\nThe ability of MBP-ECP to bind cells in the presence of serial dilutions of oligosaccharides or peptides was determined as described (Fan, T. C., et al. (2007) Traffic 8, 1778-1795). At the present invention, synthetic heparins (dp3-9) were tested for their ability to interfere with ECP binding to Beas-2B cells. Briefly, confluent monolayers of Beas-2B cells in 96-well plates were pretreated with various concentrations of oligosaccharides or peptides in serum-free RPMI 1640 medium at 4° C. for 30 min before incubation with 5 μg/ml MBP-ECP at 4° C. for 1 h. The cells were then washed with ice-cold PBS and fixed with 2% PFA at room temperature for 15 min prior to blocking with 2% BSA/PBS at room temperature for 90 min. The level of bound MBP-ECP was quantified by ELISA analysis. MBP-ECP was detected using mouse monoclonal anti-MBP and goat anti-mouse horseradish peroxidase (HRP)-conjugated secondary antibody, followed by the enhanced chemiluminescence detection system. The amount of MBP-ECP bound to cells without oligosaccharide or peptide treatment was set to 100%."}, "ECP wt": {"molecular_target": "T2, ECP wt (Homo sapiens, UniProt P12724)", "T2 construct": "His6 (C); made in house; host or cells: E. coli BL21-CodonPlus (DE3)", "T2 sequence (P12724 28-160)": "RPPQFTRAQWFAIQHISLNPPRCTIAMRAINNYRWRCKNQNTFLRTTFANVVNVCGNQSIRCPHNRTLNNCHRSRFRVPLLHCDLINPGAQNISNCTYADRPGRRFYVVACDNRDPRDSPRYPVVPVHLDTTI", "assay": "Intrinsic tryptophan fluorescence titration of ECP wt with heparin oligosaccharides", "assay_type": "binding", "settings": "PBS at 25° C., read-out: Kd, ECP wt", "procedure": "(§1) FIG. 5. ITFE profiles of ECP wt and mt1 with dp5. Tryptophan titration emission spectra of […] ECP wt or mt1 bound with dp5. The emission spectra at 340 nm were recorded. The resulting isotherms were fitted by nonlinear regression least-squares computer fit using the KaleidaGraph Synergy Software. ΔF, the relative fluorescence change, equals F0−Fobs, where F0 and Fobs represent the initial and observed fluorescence values, respectively.\n(§2) The binding affinities of wild-type and mutant ECP for heparin oligosaccharides were subsequently monitored by intrinsic tryptophan fluorescence titration (Lau, E. K., et al. (2004) The Journal of biological chemistry 279, 22294-22305).\n(§3) Binding of ECP to heparin was monitored by changes in intrinsic tryptophan fluorescence emission (IFTE). ECP (200 nM) in PBS at 25° C. was titrated with small aliquots of a high concentration of pentasaccharides with minimal dilution (<2%). Protein fluorescence measurements were recorded 2 min after each addition on a Hitachi 8000 spectrofluorimeter at emission wavelength of 340 nm using an excitation wavelength of 280 nm. ΔF, the relative fluorescence change, equals F0−Fobs, where F0 and Fobs represent the initial and observed fluorescence values, respectively. […]"}, "ECP mt1": {"molecular_target": "T3, ECP mt1 (Homo sapiens, UniProt P12724, K65A/R61A/R63A/W62A)", "T3 construct": "recombinant mature ECP was injected into the rat circulation; His6 (C); made in house; host or cells: E. coli BL21-CodonPlus(DE3)", "T3 sequence (P12724 28-160 R61A/W62A/R63A/K65A)": "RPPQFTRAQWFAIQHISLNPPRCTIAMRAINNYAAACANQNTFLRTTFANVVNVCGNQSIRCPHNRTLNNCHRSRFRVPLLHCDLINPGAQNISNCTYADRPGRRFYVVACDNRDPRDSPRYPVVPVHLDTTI", "assay": "Intrinsic tryptophan fluorescence titration of ECP mt1 with heparin oligosaccharides", "assay_type": "binding", "settings": "PBS at 25° C., read-out: Kd, ECP mt1", "procedure": "as §1\nAmino acid residues R34, W35, R36, and K38 of ECP were simultaneously substituted to alanine using QuickChange site-directed mutagenesis (Stratagene, La Jolla, Calif.) and the resultant mutant was named ECP mt1. […]\nas §2\nBinding of ECP to heparin was monitored by changes in intrinsic tryptophan fluorescence emission (IFTE). […] Protein fluorescence measurements were recorded 2 min after each addition on a Hitachi 8000 spectrofluorimeter at emission wavelength of 340 nm using an excitation wavelength of 280 nm. ΔF, the relative fluorescence change, equals F0−Fobs, where F0 and Fobs represent the initial and observed fluorescence values, respectively. […]"}, "C1 peptide": {"molecular_target": "C1 peptide (Homo sapiens, UniProt P12724)", "assay": "Tryptophan fluorescence titration of C1 peptide with heparin oligosaccharides", "assay_type": "binding", "settings": "1 μM peptide; tryptophan fluorescence at 340 nm; read-out: Kd, C1 peptide", "procedure": "FIG. 10. Titration profiles of synthetic peptides by synthetic heparin oligosaccharides. Titrations were carried out on 1 μM peptides in the presence of heparin oligosaccharides. The Kd of each peptide-oligosaccharide interaction was determined by measuring the fluorescence change of intrinsic tryptophan at 340 nm. Data were fitted to a single-binding-site curve using nonlinear least-squares analysis.\nas §3"}, "Beas-2B cells": {"system": "Beas-2B cells", "settings": "biotinylated peptides, 1 h at 4° C.", "procedure": "FIG. 7. Synthetic peptides inhibit ECP binding to cells. A, Beas-2B cells were preincubated with peptides in RPMI 1640 medium for 30 min at 4° C. before incubation with MBP-ECP for an additional 1 h. After treatment, the cells were washed with PBS and fixed with PFA. The level of bound MBP-ECP was assessed by ELISA. The amount of MBP-ECP bound to cells without peptide treatment was set to 100%. The data shown are the means of triplicate experiments. B, Beas2-B cells were incubated with biotinylated peptides for 1 h at 4° C. The amount of peptides bound to cells was assessed as for FIG. 3.\nTo investigate whether the RWRCK (SEQ ID NO: 8) motif is directly responsible for heparin binding, cell ELISA was conducted using a synthetic peptide, C1 (SEQ ID NO: 3), along with a positive control peptide derived from HIV-TAT, TAT (SEQ ID NO: 6) (Vives, E., et al. (1997) The Journal of biological chemistry 272, 16010-16017; Ziegler, A. and Seelig, J. (2004) Biophysical journal 86, 254-263). […] Therefore, synthetic peptides with heparin binding activity may compete with ECP for cellular binding. Furthermore, the cell surface binding ability of peptides was tested using cell ELISA assay."}, "[2]": {"settings": "AMAC-labeled LMWH, increasing peptide concentrations, room temperature 15 min", "procedure": "FIG. 9. FACE analysis of synthetic peptides. AMAC-labeled LMWH were incubated without or with increasing concentrations of C1, TAT, D1 and R1 peptides at room temperature for 15 min. Samples were loaded and separated by agarose gel electrophoresis as described for FIG. 2.\nSynthetic heparin oligosaccharide (FIG. 1) (Lee, C. J., et al. (2004) J Am Chem Soc 126, 476-477), low molecular weight heparin (LMWH) and PI-88 (kindly provided by Progen Inc., Australia) were labeled with 2-aminoacridone (AMAC) as described (Calabro, A., et al. (2000) Glycobiology 10, 273-281). AMAC-oligosaccharide and proteins were incubated at room temperature for 15 min, loaded onto 1% gels and electrophoresed as described (Holmes, O., et al. (2007) J Mol Biol 367, 395-408).\nIn addition, because EDN contains a conventional heparin binding sequence, the corresponding peptide, D1 (SEQ ID NO: 4), was also synthesized and tested."}, "[3]": {"settings": "PBS buffer at 25° C.; HMWH 10-20 μM", "procedure": "FIG. 11. Isothermal titration calorimetry of heparin-peptide interaction. The top panels show the differential power time course. Raw data for sequential 6-μl injections of each synthetic peptide in PBS buffer at 25° C. TAT (positive control), B, R1 (negative control), C, C1, and D, D1 into the sample cell containing 1.4 ml HMWH solution (10-20 μM). The total heat released in each injection is proportional to the area under the corresponding peak. […] The solid line represents a non-linear least squares of the reaction heat for the injection."}, "[4]": {"system": "Beas-2B cell surface heparan sulfate", "settings": "4° C. for 30 min", "description": "Human Beas-2B cells were incubated with synthetic peptide (A, TAT; B, D1) at 4° C. for 30 min and then washed, fixed and analyzed. Synthetic peptide was identified with mouse anti-biotin monoclonal antibody and FITC-conjugated goat anti-mouse antibody. The distribution of synthetic peptide was examined by confocal microscopy.\nTo investigate whether the heparin binding QRRCK motif on EDN, corresponding to the “RWRCK” motif on ECP (SEQ ID NO: 8), was directly responsible for heparan sulfate binding on cell surface, Beas-2B cell-peptide binding was conducted using a synthetic peptide, D1 (SEQ ID NO: 4), and a positive control, TAT (SEQ ID NO: 6) purchased from Genemed Synthesis (South San Francisco, Calif.)."}, "Beas-2B cell line": {"system": "Beas-2B cell line", "settings": "data taken from reference (Fan et al. 2007), read-out: IC50 for cytotoxic ECP; cited from earlier work"}},
  "data": [
    {"molecule": "CO[C@H]1O[C@H](COS(=O)(=O)O)[C@@H](O[C@@H]2O[C@@H](C(=O)O)[C@@H](O[C@H]3O[C@H](COS(=O)(=O)O)[C@@H](O[C@@H]4O[C@@H](C(=O)O)[C@@H](O[C@H]5O[C@H](COS(=O)(=O)O)[C@@H](O)[C@H](O)[C@H]5NS(=O)(=O)O)[C@H](O)[C@H]4OS(=O)(=O)O)[C@H](O)[C@H]3NS(=O)(=O)O)[C@H](O)[C@H]2OS(=O)(=O)O)[C@H](O)[C@H]1NS(=O)(=O)O", "note": "[dp5]", "values": [
      {"measurement": "binding to ECP (FACE)", "setting": "ECP", "value": "shortest heparin fragment that retained the ability to bind ECP"},
      {"measurement": "inhibition of ECP binding to cells", "setting": "[1]", "value": 50, "unit": "%"},
      {"measurement": "Kd", "setting": "ECP wt", "value": 140, "unit": "nM"},
      {"measurement": "Kd", "setting": "ECP mt1", "value": 568, "unit": "nM"},
      {"measurement": "Kd", "setting": "C1 peptide", "value": 275, "unit": "nM"}
    ]},
    {"molecule": "NYQRRCKNQNK-biotin [D1]", "values": [
      {"measurement": "cell surface binding ability of peptides", "setting": "Beas-2B cells", "value": "bound to the cell surface"},
      {"measurement": "interaction with LMWH (FACE)", "setting": "[2]", "value": "bound heparin as tightly as C1"},
      {"measurement": "heat release on binding to HMWH (ITC)", "setting": "[3]", "value": "exothermal reaction modes were clearly observed"},
      {"measurement": "peptide binding to cell surface (confocal microscopy)", "setting": "[4]", "value": "bound to Beas-2B cell surface heparan sulfate"}
    ]},
    {"molecule": "B1", "values": [
      {"measurement": "IC50", "setting": "Beas-2B cell line", "value": 16000, "unit": "nM"}
    ]}
  ]
}
